Source: paper PMC10746543, “Design principles for cyclin K molecular glue degraders” (Nature Chemical Biology, 2023)
Values joined by “and” are separate entries in the source; they are usually repeats but may differ in a detail not shown here. Equal entries are not always repeated. Where two headings read alike, the source gives them in different places.

Tests used:
[1] = test system: cyclin K–eGFP degradation reporter; assay: Cyclin K reporter stability analysis (dual-color cyclin K–eGFP reporter); assay type: cell-based, human; details: source data sheet correlations; read-out: DC50
Procedure, shortened: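 Readout was the eGFP-to-mCherry geometric-mean ratio by flow cytometry, normalized to three DMSO controls, after 5 h drug exposure. Cells used were HEK293T–Cas9 expressing the dual-colour cyclin K–eGFP degradation reporter.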

CDK9–cyclin T = target: T1, CDK9–cyclin T (Homo sapiens, UniProt P50750); assay: Lanthascreen kinase binding assay, CDK9; details: for Lanthascreen TR-FRET signal (raw ratio), sheet CDK9: first titration set (r1), duplicates
T1 construct: purchased Thermo Fisher
T1 sequence (P50750 whole entry): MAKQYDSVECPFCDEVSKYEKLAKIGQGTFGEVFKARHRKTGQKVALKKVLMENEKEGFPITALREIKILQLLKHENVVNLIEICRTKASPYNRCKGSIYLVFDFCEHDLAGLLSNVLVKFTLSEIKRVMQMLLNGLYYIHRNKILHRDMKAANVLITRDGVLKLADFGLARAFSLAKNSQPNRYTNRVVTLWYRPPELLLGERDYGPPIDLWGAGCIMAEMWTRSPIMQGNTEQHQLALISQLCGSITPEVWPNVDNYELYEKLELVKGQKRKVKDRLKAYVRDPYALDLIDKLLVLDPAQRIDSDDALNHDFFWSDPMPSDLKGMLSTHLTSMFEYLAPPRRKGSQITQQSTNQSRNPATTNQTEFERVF
T1 sequence (O60563 whole entry partner): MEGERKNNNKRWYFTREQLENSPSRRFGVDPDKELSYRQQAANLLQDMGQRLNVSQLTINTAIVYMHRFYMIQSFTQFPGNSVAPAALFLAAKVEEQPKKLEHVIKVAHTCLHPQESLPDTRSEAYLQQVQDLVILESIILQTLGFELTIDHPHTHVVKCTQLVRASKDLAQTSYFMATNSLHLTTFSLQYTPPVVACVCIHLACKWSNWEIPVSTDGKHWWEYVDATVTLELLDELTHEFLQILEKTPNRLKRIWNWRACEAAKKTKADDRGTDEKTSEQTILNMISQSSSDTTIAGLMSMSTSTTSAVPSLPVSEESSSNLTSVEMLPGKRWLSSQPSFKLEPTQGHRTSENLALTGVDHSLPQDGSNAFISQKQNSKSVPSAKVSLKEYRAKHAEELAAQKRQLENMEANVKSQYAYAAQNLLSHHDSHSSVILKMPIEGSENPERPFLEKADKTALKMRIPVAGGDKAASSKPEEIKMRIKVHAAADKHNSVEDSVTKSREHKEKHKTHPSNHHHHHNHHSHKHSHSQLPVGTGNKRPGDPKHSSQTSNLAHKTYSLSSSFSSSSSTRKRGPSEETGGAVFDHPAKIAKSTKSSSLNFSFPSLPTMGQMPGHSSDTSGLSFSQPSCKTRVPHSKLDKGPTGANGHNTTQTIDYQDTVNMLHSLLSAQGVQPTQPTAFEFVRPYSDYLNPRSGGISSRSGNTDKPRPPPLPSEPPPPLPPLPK
Protocol: (§1) Lanthascreen experiments were performed using commercially available reagents (Thermo Fisher) and according to the manufacturer’s instructions.

CDK2–cyclin A = target: T2, CDK2–cyclin A (Homo sapiens, UniProt P24941); assay: Lanthascreen kinase binding assay, CDK2; details: for Lanthascreen signal, sheet CDK2: raw replicates, experiment r1-r11
T2 construct: purchased Thermo Fisher
Protocol: as §1

CDK12–cyclin K = CDK12–cyclin K (Homo sapiens, UniProt Q9NYV4); assay: Lanthascreen kinase binding assay, CDK12; details: for Lanthascreen raw signal, sheet CDK12: series r1, duplicates
CDK12–cyclin K, sequence (Q9NYV4 713-1052): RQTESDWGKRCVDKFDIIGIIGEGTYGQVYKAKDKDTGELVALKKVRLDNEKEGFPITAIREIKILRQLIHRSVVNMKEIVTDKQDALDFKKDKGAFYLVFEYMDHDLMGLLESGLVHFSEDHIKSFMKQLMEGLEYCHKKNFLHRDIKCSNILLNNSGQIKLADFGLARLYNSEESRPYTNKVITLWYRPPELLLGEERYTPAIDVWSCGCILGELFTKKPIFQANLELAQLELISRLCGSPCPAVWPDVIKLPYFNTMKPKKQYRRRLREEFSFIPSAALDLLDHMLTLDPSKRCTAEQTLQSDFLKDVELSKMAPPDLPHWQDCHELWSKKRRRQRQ
CDK12–cyclin K, sequence (O75909 1-267 partner limits assumed): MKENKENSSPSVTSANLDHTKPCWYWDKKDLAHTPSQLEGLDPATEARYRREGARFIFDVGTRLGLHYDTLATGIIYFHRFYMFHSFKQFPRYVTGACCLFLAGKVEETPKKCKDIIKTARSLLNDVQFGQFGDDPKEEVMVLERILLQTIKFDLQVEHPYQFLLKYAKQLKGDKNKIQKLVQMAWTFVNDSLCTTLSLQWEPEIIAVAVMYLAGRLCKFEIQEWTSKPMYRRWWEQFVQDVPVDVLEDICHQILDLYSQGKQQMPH
Protocol: as §1

CDK12–cyclin K and DDB1 = target: T3, CDK12–cyclin K and DDB1 (Homo sapiens, UniProt Q16531+Q9NYV4, K965R); assay: TR-FRET ternary complex formation assay (compound titration); assay type: binding; details: for TR-FRET signal at compound concentration 0.468 nM / TR-FRET signal at compound concentration 2.16 nM / TR-FRET signal at compound concentration 3.6 nM / TR-FRET signal at compound concentration 7.92001 nM / TR-FRET signal at compound concentration 15.84 nM / TR-FRET signal at compound concentration 30.96 nM / TR-FRET signal at compound concentration 62.6401 nM / TR-FRET signal at compound concentration 125.28 nM / TR-FRET signal at compound concentration 244.8 nM / TR-FRET signal at compound concentration 993.601 nM / TR-FRET signal at compound concentration 2001.6 nM: raw replicate titration data
T3 construct: His6–CDK12 (a.a. 713–1,052); full-length or beta-propeller B domain deletion (ΔBPB: a.a. 396–705 deleted) constructs of His6–DDB1ΔBPB, StrepII–Avi–DDB1, or His6–Spy–DDB1; made in house; host or cells: Trichoplusia ni High Five insect cells (baculovirus)
T3 sequence (Q9NYV4 713-1052 K965R): as the sequence (Q9NYV4 713-1052) above, with K253R counted along it
T3 sequence (O75909 1-267 partner): as the sequence (O75909 1-267 partner limits assumed) above
T3 sequence (Q16531 whole entry): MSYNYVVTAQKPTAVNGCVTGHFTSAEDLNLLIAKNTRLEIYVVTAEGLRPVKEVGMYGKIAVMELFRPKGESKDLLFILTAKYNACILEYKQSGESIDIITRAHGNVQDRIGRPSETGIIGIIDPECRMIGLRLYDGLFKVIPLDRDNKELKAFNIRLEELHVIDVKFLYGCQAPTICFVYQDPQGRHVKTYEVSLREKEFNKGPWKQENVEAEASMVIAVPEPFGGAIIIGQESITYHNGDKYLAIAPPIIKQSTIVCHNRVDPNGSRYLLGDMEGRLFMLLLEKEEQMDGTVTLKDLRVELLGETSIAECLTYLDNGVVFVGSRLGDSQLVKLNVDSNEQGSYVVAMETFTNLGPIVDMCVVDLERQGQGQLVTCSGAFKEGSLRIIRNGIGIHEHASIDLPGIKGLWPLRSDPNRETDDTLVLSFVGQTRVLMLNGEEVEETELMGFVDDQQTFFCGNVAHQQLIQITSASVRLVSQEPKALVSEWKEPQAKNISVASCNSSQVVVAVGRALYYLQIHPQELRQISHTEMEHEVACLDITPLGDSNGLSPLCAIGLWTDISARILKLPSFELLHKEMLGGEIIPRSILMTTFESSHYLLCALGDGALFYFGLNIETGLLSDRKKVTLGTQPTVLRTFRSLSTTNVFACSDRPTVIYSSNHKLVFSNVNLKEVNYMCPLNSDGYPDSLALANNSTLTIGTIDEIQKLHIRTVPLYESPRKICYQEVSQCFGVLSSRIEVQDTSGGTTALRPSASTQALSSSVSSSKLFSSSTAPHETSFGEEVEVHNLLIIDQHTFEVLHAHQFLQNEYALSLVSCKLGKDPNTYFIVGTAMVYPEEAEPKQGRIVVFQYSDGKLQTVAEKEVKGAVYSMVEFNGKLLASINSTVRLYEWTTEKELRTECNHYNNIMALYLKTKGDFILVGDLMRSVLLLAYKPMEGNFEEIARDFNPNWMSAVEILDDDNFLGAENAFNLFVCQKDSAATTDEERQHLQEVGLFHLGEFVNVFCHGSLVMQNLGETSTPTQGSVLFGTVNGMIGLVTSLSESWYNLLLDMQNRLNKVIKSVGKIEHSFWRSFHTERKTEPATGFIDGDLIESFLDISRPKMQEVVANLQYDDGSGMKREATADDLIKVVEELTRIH
Procedure, shortened: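 Signal was the ratio of 520 nm to 490 nm fluorescence, measured after a 70 μs delay that reduced background.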

HEK293T cells = assay: Drug sensitivity assay (CellTiter-Glo viability) with or without MLN4924 pretreatment; assay type: cell-based, human; details: Supplementary Table 2; for EC50: Homo sapiens, HEK-293T, HEK293T viability, 72 h, compound alone, read-out: Cellular assays EC50; for Toxicity rescue: MLN4924-mediated cytotoxicity rescue, 10 µM used where n.d.
Procedure, shortened: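 HEK293T–Cas9, 0.15 × 10^6 ml^−1; pretreat DMSO vs 100 nM MLN4924; drugs dispensed after 2 h; 3 d exposure; CellTiter-Glo; viability vs DMSO control.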

[2] = Supplementary Table 2, read-out: Lanthascreen IC50 [nM] CDK9
[3] = Supplementary Table 2, read-out: Lanthascreen IC50 [nM] CDK2
[4] = in vitro complex formation, 50 nM CDK12–cyclin K, 100 nM DDB1, text and figures, read-out: TR-FRET EC50
[5] = sheet MOESM7, read-out: log TR-FRET EC50 (converted)
[6] = source data sheet correlations, read-out: TR-FRET EC50

Cn1cc(-c2cnn3c(NCc4nc5cc(Cl)c(Cl)cc5[nH]4)nc(N4CCOCC4)nc23)cn1 [DS74]
DC50 [1]: 51 nM
IC50 (CDK9–cyclin T; [2]): 2580 nM
Lanthascreen TR-FRET signal (raw ratio), sheet CDK9 (CDK9–cyclin T; compound 1.02544 nM): 0.01642 and 0.01407
Lanthascreen TR-FRET signal (raw ratio), sheet CDK9 (CDK9–cyclin T; compound 3.15521 nM): 0.01297 and 0.01448
Lanthascreen TR-FRET signal (raw ratio), sheet CDK9 (CDK9–cyclin T; compound 9.46563 nM): 0.01462 and 0.01504
Lanthascreen TR-FRET signal (raw ratio), sheet CDK9 (CDK9–cyclin T; compound 31.5521 nM): 0.01422 and 0.01715
Lanthascreen TR-FRET signal (raw ratio), sheet CDK9 (CDK9–cyclin T; compound 99.3891 nM): 0.0151 and 0.01375
Lanthascreen TR-FRET signal (raw ratio), sheet CDK9 (CDK9–cyclin T; compound 315.521 nM): 0.01436 and 0.01406
Lanthascreen TR-FRET signal (raw ratio), sheet CDK9 (CDK9–cyclin T; compound 3155.21 nM): 0.01124 and 0.01046
Lanthascreen TR-FRET signal (raw ratio), sheet CDK9 (CDK9–cyclin T; compound 10002 nM): 0.00772 and 0.01002
Lanthascreen signal, sheet CDK2 (CDK2–cyclin A; Compound 1.02544 nM): 0.01044 and 0.01012
Lanthascreen signal, sheet CDK2 (CDK2–cyclin A; Compound 3.15521 nM): 0.0108 and 0.009644
Lanthascreen signal, sheet CDK2 (CDK2–cyclin A; Compound 9.46563 nM): 0.01089 and 0.009432
Lanthascreen signal, sheet CDK2 (CDK2–cyclin A; Compound 31.5521 nM): 0.01098 and 0.01188
Lanthascreen signal, sheet CDK2 (CDK2–cyclin A; Compound 99.3891 nM): 0.011 and 0.01075
Lanthascreen signal, sheet CDK2 (CDK2–cyclin A; Compound 315.521 nM): 0.009926 and 0.01051
Lanthascreen signal, sheet CDK2 (CDK2–cyclin A; Compound 3155.21 nM): 0.01049 and 0.01005
Lanthascreen signal, sheet CDK2 (CDK2–cyclin A; Compound 10002 nM): 0.009311 and 0.007215
IC50 (CDK2–cyclin A; Lanthascreen, average, Extended Data Fig. 8, read-out: CDK2 IC50): > 10000 nM
IC50 (CDK2–cyclin A; [3]): > 10000 nM
IC50 (CDK12–cyclin K; Supplementary Table 2, read-out: Lanthascreen IC50 [nM] CDK12): 25 nM
Lanthascreen raw signal, sheet CDK12 (CDK12–cyclin K; compound 1.02544 nM): 0.009355 and 0.008483
Lanthascreen raw signal, sheet CDK12 (CDK12–cyclin K; compound 3.15521 nM): 0.00952 and 0.009538
Lanthascreen raw signal, sheet CDK12 (CDK12–cyclin K; compound 9.46563 nM): 0.009122 and 0.008857
Lanthascreen raw signal, sheet CDK12 (CDK12–cyclin K; compound 31.5521 nM): 0.006579 and 0.007668
Lanthascreen raw signal, sheet CDK12 (CDK12–cyclin K; compound 99.3891 nM): 0.005593 and 0.007192
Lanthascreen raw signal, sheet CDK12 (CDK12–cyclin K; compound 315.521 nM): 0.006881 and 0.006508
Lanthascreen raw signal, sheet CDK12 (CDK12–cyclin K; compound 3155.21 nM): 0.007229 and 0.005774
Lanthascreen raw signal, sheet CDK12 (CDK12–cyclin K; compound 10002 nM): 0.005716 and 0.005184
TR-FRET signal at compound concentration 0.468 nM (CDK12–cyclin K and DDB1): 0.2798 and 0.3065 and 0.1782 and 0.1849
TR-FRET signal at compound concentration 2.16 nM (CDK12–cyclin K and DDB1): 0.3614 and 0.3498 and 0.2211 and 0.2229
TR-FRET signal at compound concentration 3.6 nM (CDK12–cyclin K and DDB1): 0.435 and 0.4393 and 0.2978 and 0.2973
TR-FRET signal at compound concentration 7.92001 nM (CDK12–cyclin K and DDB1): 0.5995 and 0.6274 and 0.4373 and 0.4353
TR-FRET signal at compound concentration 15.84 nM (CDK12–cyclin K and DDB1): 0.9577 and 0.9944 and 0.7392 and 0.7343
TR-FRET signal at compound concentration 30.96 nM (CDK12–cyclin K and DDB1): 1.593 and 1.564 and 1.2847 and 1.436
TR-FRET signal at compound concentration 62.6401 nM (CDK12–cyclin K and DDB1): 1.875 and 1.832 and 1.71 and 1.6908
TR-FRET signal at compound concentration 125.28 nM (CDK12–cyclin K and DDB1): 1.954 and 1.862 and 1.734 and 1.741
TR-FRET signal at compound concentration 244.8 nM (CDK12–cyclin K and DDB1): 2.043 and 1.982 and 1.799 and 1.754
TR-FRET signal at compound concentration 993.601 nM (CDK12–cyclin K and DDB1): 2.0625 and 2.016 and 1.825 and 1.774
TR-FRET signal at compound concentration 2001.6 nM (CDK12–cyclin K and DDB1): 1.983 and 1.981 and 1.797 and 1.763
EC50 (CDK12–cyclin K and DDB1; [4]): 20 ± 1 nM
EC50 (CDK12–cyclin K and DDB1; [5]): 19.8 nM
EC50 (CDK12–cyclin K and DDB1; [6]): 19.8 nM
EC50 (HEK293T cells): 104 nM
Toxicity rescue (HEK293T cells): 916%

CC[C@H](CO)Nc1nc(NCc2nc3c(F)c(F)ccc3[nH]2)c2ncn(C(C)C)c2n1 [DS64]
DC50 [1]: 62 nM
IC50 (CDK9–cyclin T; Lanthascreen, average, Extended Data Fig. 8, read-out: CDK9 IC50): > 10000 nM
IC50 (CDK9–cyclin T; [2]): > 10000 nM
Lanthascreen TR-FRET signal (raw ratio), sheet CDK9 (CDK9–cyclin T; compound 1.02544 nM): 0.01262 and 0.01798
Lanthascreen TR-FRET signal (raw ratio), sheet CDK9 (CDK9–cyclin T; compound 3.15521 nM): 0.01403 and 0.01513
Lanthascreen TR-FRET signal (raw ratio), sheet CDK9 (CDK9–cyclin T; compound 9.46563 nM): 0.01561 and 0.01591
Lanthascreen TR-FRET signal (raw ratio), sheet CDK9 (CDK9–cyclin T; compound 31.5521 nM): 0.01447 and 0.01334
Lanthascreen TR-FRET signal (raw ratio), sheet CDK9 (CDK9–cyclin T; compound 99.3891 nM): 0.01493 and 0.01478
Lanthascreen TR-FRET signal (raw ratio), sheet CDK9 (CDK9–cyclin T; compound 315.521 nM): 0.01351 and 0.01148
Lanthascreen TR-FRET signal (raw ratio), sheet CDK9 (CDK9–cyclin T; compound 3155.21 nM): 0.008801 and 0.0091
Lanthascreen TR-FRET signal (raw ratio), sheet CDK9 (CDK9–cyclin T; compound 10002 nM): 0.004226 and 0.004622
Lanthascreen signal, sheet CDK2 (CDK2–cyclin A; Compound 1.02544 nM): 0.01032 and 0.009036
Lanthascreen signal, sheet CDK2 (CDK2–cyclin A; Compound 3.15521 nM): 0.009561 and 0.01039
Lanthascreen signal, sheet CDK2 (CDK2–cyclin A; Compound 9.46563 nM): 0.01132 and 0.01064
Lanthascreen signal, sheet CDK2 (CDK2–cyclin A; Compound 31.5521 nM): 0.009578 and 0.01231
Lanthascreen signal, sheet CDK2 (CDK2–cyclin A; Compound 99.3891 nM): 0.0112 and 0.01036
Lanthascreen signal, sheet CDK2 (CDK2–cyclin A; Compound 315.521 nM): 0.00859 and 0.007854
Lanthascreen signal, sheet CDK2 (CDK2–cyclin A; Compound 3155.21 nM): 0.006995 and 0.007302
Lanthascreen signal, sheet CDK2 (CDK2–cyclin A; Compound 10002 nM): 0.004999 and 0.005409
IC50 (CDK2–cyclin A; [3]): 4960 nM
Lanthascreen raw signal, sheet CDK12 (CDK12–cyclin K; compound 1.02544 nM): 0.01144 and 0.008554
Lanthascreen raw signal, sheet CDK12 (CDK12–cyclin K; compound 3.15521 nM): 0.008537 and 0.009228
Lanthascreen raw signal, sheet CDK12 (CDK12–cyclin K; compound 9.46563 nM): 0.008646 and 0.00887
Lanthascreen raw signal, sheet CDK12 (CDK12–cyclin K; compound 31.5521 nM): 0.00802 and 0.006596
Lanthascreen raw signal, sheet CDK12 (CDK12–cyclin K; compound 99.3891 nM): 0.007448 and 0.007338
Lanthascreen raw signal, sheet CDK12 (CDK12–cyclin K; compound 315.521 nM): 0.006013 and 0.008259
Lanthascreen raw signal, sheet CDK12 (CDK12–cyclin K; compound 3155.21 nM): 0.007185 and 0.006229
Lanthascreen raw signal, sheet CDK12 (CDK12–cyclin K; compound 10002 nM): 0.005174 and 0.004623
TR-FRET signal at compound concentration 0.468 nM (CDK12–cyclin K and DDB1): 0.2748 and 0.2878
TR-FRET signal at compound concentration 2.16 nM (CDK12–cyclin K and DDB1): 0.3281 and 0.3452
TR-FRET signal at compound concentration 3.6 nM (CDK12–cyclin K and DDB1): 0.4287 and 0.4479
TR-FRET signal at compound concentration 7.92001 nM (CDK12–cyclin K and DDB1): 0.6146 and 0.6538
TR-FRET signal at compound concentration 15.84 nM (CDK12–cyclin K and DDB1): 0.9627 and 1.0618
TR-FRET signal at compound concentration 30.96 nM (CDK12–cyclin K and DDB1): 1.485 and 1.709
TR-FRET signal at compound concentration 62.6401 nM (CDK12–cyclin K and DDB1): 2.204 and 2.463
TR-FRET signal at compound concentration 125.28 nM (CDK12–cyclin K and DDB1): 2.739 and 3.004
TR-FRET signal at compound concentration 244.8 nM (CDK12–cyclin K and DDB1): 3.0364 and 3.323
TR-FRET signal at compound concentration 993.601 nM (CDK12–cyclin K and DDB1): 3.365 and 3.564
TR-FRET signal at compound concentration 2001.6 nM (CDK12–cyclin K and DDB1): 3.296 and 3.552
EC50 (CDK12–cyclin K and DDB1; [4]): 41 ± 2 nM
EC50 (CDK12–cyclin K and DDB1; [5]): 40.9 nM
EC50 (CDK12–cyclin K and DDB1; [6]): 40.9 nM
EC50 (HEK293T cells): 527 nM
Toxicity rescue (HEK293T cells): 971%
